What all share (format): biochemical
The target of assay [1] is T1, ENPP1 (Homo sapiens, UniProt P22413).
T1 sequence (P22413 1-925): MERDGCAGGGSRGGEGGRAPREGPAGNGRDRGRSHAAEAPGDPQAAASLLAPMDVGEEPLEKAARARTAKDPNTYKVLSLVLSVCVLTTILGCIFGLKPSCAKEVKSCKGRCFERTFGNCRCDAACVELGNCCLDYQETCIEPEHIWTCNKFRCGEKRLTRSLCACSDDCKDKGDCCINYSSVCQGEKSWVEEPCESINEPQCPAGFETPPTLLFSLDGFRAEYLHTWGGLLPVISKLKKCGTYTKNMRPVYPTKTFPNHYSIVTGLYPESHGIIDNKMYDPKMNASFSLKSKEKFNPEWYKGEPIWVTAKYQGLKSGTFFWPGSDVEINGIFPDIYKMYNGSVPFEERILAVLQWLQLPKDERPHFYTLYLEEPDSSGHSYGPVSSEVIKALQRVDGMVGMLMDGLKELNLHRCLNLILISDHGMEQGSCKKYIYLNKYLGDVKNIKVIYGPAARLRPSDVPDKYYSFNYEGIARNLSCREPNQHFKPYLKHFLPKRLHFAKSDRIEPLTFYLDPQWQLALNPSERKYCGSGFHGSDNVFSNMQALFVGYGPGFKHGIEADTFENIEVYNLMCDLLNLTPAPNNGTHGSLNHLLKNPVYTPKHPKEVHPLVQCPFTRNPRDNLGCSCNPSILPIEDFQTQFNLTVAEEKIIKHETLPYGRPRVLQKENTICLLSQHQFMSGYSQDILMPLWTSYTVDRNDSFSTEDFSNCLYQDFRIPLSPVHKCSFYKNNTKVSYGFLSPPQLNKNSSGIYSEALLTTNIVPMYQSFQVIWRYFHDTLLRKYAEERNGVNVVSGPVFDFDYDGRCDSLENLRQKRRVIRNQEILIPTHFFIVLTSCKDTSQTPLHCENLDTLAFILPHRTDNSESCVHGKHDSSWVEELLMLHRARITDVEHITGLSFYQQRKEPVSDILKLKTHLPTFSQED
Briefly: Substrate selectivity ratio, inhibition of cGAMP hydrolysis versus ATP hydrolysis. The conditions noted are these: ratio Ki AMP-pNP / Ki cGAMP. The method, then:
The selectivity ratios for inhibition of cGAMP hydrolysis versus ATP hydrolysis were then calculated as follows: […]

Assay [2] deals with T1, ENPP1. As to the kind of experiment: ENPP1 enzyme assay with AMP-pNP substrate (hydrolysis of ATP analog). Conditions: AMP-pNP substrate (ATP analog); Ki from IC50 by Cheng-Prusoff; read-out: ENPP1 Inhibition _AMP-pNP: Ki. The gist of the method: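 Human recombinant ENPP1 (60 ng/well) with 300 µM AMP-pNP in 50 mM Tris-HCl pH 8.5, 250 mM NaCl, 0.5 mM CaCl2, 1 µM ZnCl2, 0.1% DMSO, 20 min at 37 °C.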

In assay [3] the target is T1, ENPP1. As to the kind of experiment: Indirect quantitation of 2',3'-cGAMP hydrolysis (AMP-Glo Assay kit). Conditions: cGAMP substrate; Ki from IC50 by Cheng-Prusoff; read-out: ENPP1 Inhibition -cGAMP: Ki.

For orientation: Ki means a dissociation constant, usually derived from enzyme kinetics or from competition with a known ligand.

For `COc1ccc2c(NCc3ccc(S(N)(=O)=O)cc3)ncnc2c1` [Example 230, 4-(((7-methoxyquinazolin-4-yl)amino)methyl)benzene sulfonamide], the “Substrate Selectivity: Ki_AMP-pNP/Ki_cGAMP” value (“Substrate Selectivity” below) at ENPP1 [1] worked out at 71.2. For the same molecule, the inhibitory constant (Ki) at ENPP1 [2] and at ENPP1 [3] was less than 0.1 µM each time.
With `COc1ccc2c(Oc3ccc(NS(N)(=O)=O)cc3)ccnc2n1` [Example 73, N-(4-((7-methoxy-1,8-naphthyridin-4-yl)oxy)phenyl)sulfamide], at ENPP1 [1], the “Substrate Selectivity” value came to 24.2. Moreover, the Ki on ENPP1 [2] and at ENPP1 [3] was less than 0.1 µM each time.
Turning to `COc1ccc2c(Oc3ccc(S(=N)(=O)O)cc3F)ccnc2c1` [Example 382, 3-fluoro-4-((7-methoxyquinolin-4-yl)oxy)benzene sulfonamide], the “Substrate Selectivity” value at ENPP1 [1] is given as greater than 142. The inhibitory constant (Ki) at ENPP1 [2] was greater than 1 µM; at ENPP1 [3] it was less than 0.1 µM.
The corresponding values for `COc1cc2ncnc(N3CCc4cc(NS(N)(=O)=O)ccc4C3)c2cc1OC` [Example 137, N-(2-(6,7-dimethoxyquinazolin-4-yl)-1,2,3,4-tetrahydroisoquinolin-6-yl)sulfamide] are 22.4, 0.1 to 1 µM and less than 0.1 µM.
The corresponding values for `COc1ccc2c(N3CCC4(CC3)CCN(S(N)(=O)=O)C4)c(C#N)cnc2c1` [Example 248, 8-(3-cyano-7-methoxyquinolin-4-yl)-2,8-diazaspiro[4.5]decane-2-sulfonamide] are 48.6, less than 0.1 µM and less than 0.1 µM.
For the molecule `COc1ccc2c(Oc3ncc(NS(N)(=O)=O)cc3C)ccnc2c1` [Example 351, N-(6-((7-methoxyquinolin-4-yl)oxy)-5-methylpyridin-3-yl)sulfamide], the “Substrate Selectivity” value on ENPP1 [1] came out at 55. Moreover, the Ki is greater than 1 µM on ENPP1 [2] and less than 0.1 µM on ENPP1 [3].
Take `NS(=O)(=O)N1CCC2(CCN(c3ccnc4cc(OC(F)F)ccc34)CC2)C1` [Example 265, 8-(7-(difluoromethoxy)quinolin-4-yl)-2,8-diazaspiro[4.5]decane-2-sulfonamide]: on ENPP1 [1], the “Substrate Selectivity” value is given as greater than 13.0. Moreover, the Ki at ENPP1 [2] is greater than 1 µM; at ENPP1 [3], 0.1 to 1 µM.
Consider `COc1ccc2c(Oc3ccc(CS(N)(=O)=O)cc3)ccnc2c1` [Example 312, (4-((7-methoxyquinolin-4-yl)oxy)phenyl)methanesulfonamide], for which the “Substrate Selectivity” value at ENPP1 [1] stood at 28.2. For the same molecule, the Ki on ENPP1 [2] was 0.1 to 1 µM; at ENPP1 [3], less than 0.1 µM.
The corresponding values for `COc1cc2nccc(N3CCC4(CC3)CCN(S(N)(=O)=O)C4)c2cc1OC` [Example 160, 8-(6,7-dimethoxyquinolin-4-yl)-2,8-diazaspiro[4.5]decane-2-sulfonamide] are 13.9, less than 0.1 µM and less than 0.1 µM.
The corresponding values for `COc1ccc2c(N3CCc4c3ccc(NS(N)(=O)=O)c4F)ccnc2c1` [Example 379, N-(4-fluoro-1-(7-methoxyquinolin-4-yl)indolin-5-yl)sulfamide] are greater than 41, 0.1 to 1 µM and less than 0.1 µM.
The corresponding values for `COc1ccc2c(-c3ccc(CNS(N)(=O)=O)c(F)c3)ccnc2c1` [Example 62, N-(2-fluoro-4-(7-methoxyquinolin-4-yl)benzyl)sulfamide] are 16.1, less than 0.1 µM and less than 0.1 µM.
Regarding `COc1cc2ncnc(NCc3ccc(S(N)(=O)=O)cc3)c2cc1F` [Example 259, 4-(((6-fluoro-7-methoxyquinazolin-4-yl)amino)methyl)benzenesulfonamide], the “Substrate Selectivity” value at ENPP1 [1] came out at 41.6. The inhibitory constant (Ki) on ENPP1 [2] and at ENPP1 [3] was less than 0.1 µM throughout.
As to `COc1ccc2c(-c3ccc(CNS(N)(=O)=O)c(OC)c3)ccnc2c1` [Example 373, N-(2-methoxy-4-(7-methoxyquinolin-4-yl)benzyl)sulfamide], the “Substrate Selectivity” value on ENPP1 [1] is greater than 136. Besides, the inhibition constant (Ki) at ENPP1 [2] was greater than 1 µM; at ENPP1 [3] it was 0.1 to 1 µM.
The corresponding values for `COc1cc2ncn(-c3ccc(CNS(N)(=O)=O)cc3)c2cc1OC` [Example 120, N-(4-(5,6-dimethoxy-1H-benzo[d]imidazol-1-yl)benzyl)sulfamide] are 54.5, greater than 1 µM and less than 0.1 µM.
The corresponding values for `COc1ccc2c(-c3ccc(CNS(N)(=O)=O)cc3)c(C(F)(F)F)cnc2c1` [Example 386, N-(4-(7-methoxy-3-(trifluoromethyl)quinolin-4-yl)benzyl) sulfamide] are 39, 0.1 to 1 µM and less than 0.1 µM.
The corresponding values for `COc1cc2ncnc(N3CCC4(CCNC4)CC3)c2cc1OC` [Example 274, 8-(6,7-dimethoxyquinazolin-4-yl)-2,8-diazaspiro[4.5]decane] are greater than 6.4, greater than 1 µM and 0.1 to 1 µM.
In the case of `COc1cc2ncnc(Oc3ccc(NS(N)(=O)=O)cc3)c2cc1OC` [Example 273, N-(4-((6,7-dimethoxyquinazolin-4-yl)oxy)phenyl)sulfamide], the “Substrate Selectivity” value on ENPP1 [1] is reported as greater than 12.4. For the same molecule, the values for the Ki on ENPP1 [2] and on ENPP1 [3] were greater than 1 µM and 0.1 to 1 µM, respectively.
With `COc1cc2ncnc(NCCc3ccc(NS(N)(=O)=O)cc3)c2cc1OC` [Example 156, N-(4-(2-((6,7-dimethoxyquinazolin-4-yl)amino)ethyl)phenyl) sulfamide], the “Substrate Selectivity” value at ENPP1 [1] stood at 23.3. The Ki at ENPP1 [2] is 0.1 to 1 µM; at ENPP1 [3], less than 0.1 µM.
With `COc1cc2ncc(C#N)c(-c3ccc(S(N)(=O)=O)cc3)c2cc1OC` [Example 136, 4-(3-cyano-6,7-dimethoxyquinolin-4-yl)benzenesulfonamide], at ENPP1 [1], the “Substrate Selectivity” value is given as greater than 461. Besides, the Ki at ENPP1 [2] is greater than 1 µM; at ENPP1 [3] it was less than 0.1 µM.
The corresponding values for `COc1nc2ncnc(N3CCC(CCNS(N)(=O)=O)CC3)c2n1C` [Example 218, N-(2-(1-(8-methoxy-7-methyl-7H-purin-6-yl)piperidin-4-yl)ethyl)sulfamide] are greater than 42.9, greater than 1 µM and 0.1 to 1 µM.
The corresponding values for `COc1cc(F)c2c(-c3ccc(CNS(N)(=O)=O)cc3)ccnc2c1` [Example 394, N-(4-(5-fluoro-7-methoxyquinolin-4-yl)benzyl)sulfamide] are greater than 95, greater than 1 µM and less than 0.1 µM.
The corresponding values for `COc1cc2ncnc(-c3ccc(CCNS(N)(=O)=O)cc3)c2cc1OC` [Example 145, N-(4-(6,7-dimethoxyquinazolin-4-yl)phenethyl)sulfamide] are 20.7, 0.1 to 1 µM and less than 0.1 µM.
`COc1ccc2c(-c3ccc(CNS(N)(=O)=O)s3)ccnc2c1` [Example 389, N-((5-(7-methoxyquinolin-4-yl)thiophen-2-yl)methyl)sulfamide]: the “Substrate Selectivity” value at ENPP1 [1] was 34. Also, the Ki on ENPP1 [2] and at ENPP1 [3] was less than 0.1 µM each time.

(Values after US20230183239A1, “ECTONUCLEOTIDE PYROPHOSPHATASE-PHOSPHODIESTERASE 1 (ENPP-1) INHIBITORS AND USES THEREOF” (AbbVie Inc., priority 2017, published 2023).)
